Where “and” joins values, the source holds several entries; their conditions need not be identical. Equal values may be shown once. Read-outs that look alike come from different tables or passages of the source.
Tests used:
[1] = target: SARS-CoV-2 NSP3 macrodomain (Mac1), P43 crystal form (Severe acute respiratory syndrome coronavirus 2, UniProt P0DTD1); assay type: binding; settings: for PanDDA run, TFA/DMSO background map: 1-BDC / PanDDA run, TFA/DMSO background map: Hit: soak concentration 10 mM; for 1-BDC: PanDDA background density correction; for X-ray crystal structure: X-ray crystal structure determined (TRUE); for Total number of conformations: ligand conformations modeled in Mac1 crystal structure; for 2*(1-BDC) (%): occupancy estimate from PanDDA BDC; for Binding site: site of ligand in X-ray crystal structure
[2] = target: SARS-CoV-2 NSP3 macrodomain (Mac1) (Severe acute respiratory syndrome coronavirus 2, UniProt P0DTD1); experiment: biochemical; assay type: binding
[3] = ligand modeling in Mac1 crystal soak
[4] = stereoisomer(s) of ligand modeled in Mac1 crystal structure
[5] = dose-response, read-out: SARS CoV-2 macrodomain HTRF assay: IC50
[6] = dose-response, read-out: SARS CoV-2 macrodomain HTRF assay: Ki
[7] = from SARS CoV-2 macrodomain HTRF assay
[8] = Single dose, concentration 200 μM, read-out: SARS CoV-2 macrodomain HTRF assay: Average % competition
[9] = preliminary screen, compound at 200 μM, mean of 3-4 technical replicates, read-out: % competition in HTRF assay
[10] = crystal soak 10 mM, P43 crystals
[11] = crystal soak 10 mM, DMSO background map
[12] = SARS CoV-2 macrodomain HTRF assay
[13] = SARS CoV-2 macrodomain HTRF assay, dose-response, read-out: Ki
[14] = crystal soak 10 mM, DMSO background map, event 1
[15] = ligand modeling in Mac1 crystal structure
[16] = stereoisomer(s) modeled in Mac1 crystal structure
[17] = SARS CoV-2 macrodomain HTRF assay, dose-response
[18] = SARS CoV-2 macrodomain HTRF assay, dose-response, read-out: IC50

## OC[C@@H]1C[C@@H]2CCC[C@@H]2N1c1ncnc2[nH]ccc12 [AVI-3720]
[1]; [3]
  Number of isomers bound: 1
[1]; [4]
  Isomers modeled: SSS
[2]; [5]
  IC50: 28 µM
[2]; [6]
  Ki: 26 µM
[2]; [7]
  Ligand efficiency (binding enery per heavy atom): 0.33

## CN1CCN(c2ncnc3[nH]ccc23)C(CO)C1 (stereo not shown) [AVI-3721]
[1]; [3]
  Number of isomers bound: 1
[1]; [4]
  Isomers modeled: R,R
[2]; [8]
  inhibition at 200 µM: 11%
[2]; [9]
  inhibition at 200 µM: 11%

## CC(C)(C)[C@@H]1CCN(c2ncnc3[nH]ccc23)[C@H](CO)C1 [AVI-3722]
[1]; [3]
  Number of isomers bound: 1
[2]; [8]
  inhibition at 200 µM: 22%
[2]; [9]
  inhibition at 200 µM: 22%

## OC[C@H]1CN2CCC[C@H]2CN1c1ncnc2[nH]ccc12 [AVI-3724]
[1]; [10]
  Pandda run, overall: Hit: TRUE
  Pandda run, overall: Modeling comment: Weak density, not modeled
[1]; [11]
  PanDDA run, DMSO background map: 1-BDC: 0.05
  PanDDA run, DMSO background map: Hit: TRUE
[2]; [8]
  inhibition at 200 µM: < 10%
[2]; [9]
  inhibition at 200 µM: < 10%

## CC1(C)CCC(CO)N(c2ncnc3[nH]ccc23)C1 (stereo not shown) [AVI-3726]
[1]; [3]
  Number of isomers bound: 2
[1]; [4]
  Isomers modeled: R,R,S
[2]; [8]
  inhibition at 200 µM: 76%
[2]; [9]
  inhibition at 200 µM: 76%

## OCC1CC2(CCCCC2)CN1c1ncnc2[nH]ccc12 (stereo not shown) [AVI-3727]
[1]; [3]
  Number of isomers bound: 1
[1]; TFA/DMSO background map
  PanDDA run, TFA/DMSO background map: 1-BDC: 0.25
  PanDDA run, TFA/DMSO background map: Hit: TRUE
[2]; [8]
  inhibition at 200 µM: 67%
[2]; [9]
  inhibition at 200 µM: 67%

## OCC1CC2(CCC2)CN1c1ncnc2[nH]ccc12 (stereo not shown) [AVI-3728]
[1]; [3]
  Number of isomers bound: 1
[1]; TFA/DMSO background map
  PanDDA run, TFA/DMSO background map: 1-BDC: 0.26
  PanDDA run, TFA/DMSO background map: Hit: TRUE
[1]; [4]
  Isomers modeled: S,S
[2]; [8]
  inhibition at 200 µM: 79%
[2]; [9]
  inhibition at 200 µM: 79%

## C[C@@H](O)[C@H](CO)Nc1ncnc2[nH]ccc12.O=C(O)C(F)(F)F [AVI-3730]
[1]; [3]
  Number of isomers bound: 1
[1]; TFA/DMSO background map
  PanDDA run, TFA/DMSO background map: 1-BDC: 0.12
  PanDDA run, TFA/DMSO background map: Hit: TRUE
[2]; Single dose, concentration 200 μM, read-out: Average % competition
  inhibition at 200 µM: 63%
[2]; [9]
  inhibition at 200 µM: 63%

## O=C(O)C(F)(F)F.OC1([C@H]2CCCN2c2ncnc3[nH]ccc23)Cc2ccccc2C1 [AVI-3731]
[1]; [3]
  Number of isomers bound: 1
[1]; TFA/DMSO background map
  PanDDA run, TFA/DMSO background map: 1-BDC: 0.14
  PanDDA run, TFA/DMSO background map: Hit: TRUE
[2]; [6]
  Ki: 3.4 µM
[2]; [7]
  Ligand efficiency (binding enery per heavy atom): 0.31
[2]; open state of Phe132 loop
  fold more potent compared to open state binders reported previously: 10–50 fold
[2]; read-out: HTRF IC50
  IC50: 3.7 µM

## Cc1nn(C)cc1C1CCC(CO)N1c1ncnc2[nH]ccc12 (stereo not shown) [AVI-3733]
[1]; [3]
  Number of isomers bound: 1
[2]; [8]
  inhibition at 200 µM: 44%
[2]; [9]
  inhibition at 200 µM: 44%

## OCCC(CO)Nc1ncnc2[nH]ccc12 (stereo not shown) [AVI-3734]
[1]; [3]
  Number of isomers bound: 1
[2]; [12]
  Ligand efficiency (binding enery per heavy atom): 0.37
[2]; [13]
  Ki: 48 µM
[2]; read-out: HTRF IC50
  IC50: 52 µM

## Cc1c[nH]c2ncnc(NCC(C)(C)O)c12 [AVI-3758, 2-methyl-1-((5-methyl-7H-pyrrolo[2,3-d]pyrimidin-4-yl)amino)propan-2-ol]
[1]
  Occupancy difference (refined_occupancy - 2*(1-BDC)): 22
  Refined ligand occupancy (%): 50%
  1-BDC: 0.14
  X-ray crystal structure: TRUE
  Total number of conformations: 2
  2*(1-BDC) (%): 28%
  Binding site: Adenosine
[1]; [10]
  Hit (PanDDA run, overall): TRUE
[1]; [11]
  Hit (PanDDA run, DMSO background map): TRUE
[1]; [14]
  1-BDC (PanDDA run, DMSO background map): 0.19 and 0.14
[1]; [15]
  Number of isomers bound: 1
[1]; [16]
  Isomers modeled: achiral,achiral
[2]; HTRF dose-response fit, Mac1
  Hill slope: 1.0
[2]; [12]
  Ligand efficiency (binding enery per heavy atom): 0.40
[2]; [17]
  Hill slope: 1.0
[2]; [13]
  Ki: 26 µM
[2]; read-out: HTRF IC50
  IC50: 28 µM

## Cc1c[nH]c2ncnc(NCC3(O)CCCC3)c12 [AVI-3760, 1-(((5-methyl-7H-pyrrolo[2,3-d]pyrimidin-4-yl)amino)methyl)cyclopentan-1-ol]
[1]
  Occupancy difference (refined_occupancy - 2*(1-BDC)): 18
  Refined ligand occupancy (%): 50%
  1-BDC: 0.16
  X-ray crystal structure: TRUE
  Total number of conformations: 2
  2*(1-BDC) (%): 32%
  Binding site: Adenosine
[1]; [10]
  Hit (PanDDA run, overall): TRUE
[1]; [11]
  Hit (PanDDA run, DMSO background map): TRUE
[1]; [14]
  1-BDC (PanDDA run, DMSO background map): 0.19 and 0.16
[1]; [15]
  Number of isomers bound: 1
[1]; [16]
  Isomers modeled: achiral,achiral
[2]; HTRF dose-response fit, Mac1
  Hill slope: 1.1
[2]; [12]
  Ligand efficiency (binding enery per heavy atom): 0.36
[2]; [17]
  Hill slope: 1.1
[2]; [18]
  IC50: 19 µM
[2]; [13]
  Ki: 18 µM

## Cc1c[nH]c2ncnc(NCC3(O)CCCCC3)c12 [AVI-3761, 1-(((5-methyl-7H-pyrrolo[2,3-d]pyrimidin-4-yl)amino)methyl)cyclohexan-1-ol]
[1]
  Isomers modeled: achiral
  Number of isomers bound: 1
[2]
  Ki: 12 µM
[2]; HTRF IC50
  IC50: 13 µM

## CC(O)C1CCCN1c1ncnc2[nH]ccc12 (stereo not shown) [AVI-4062]
[1]; [15]
  Number of isomers bound: 1
[2]; HTRF
  fold decrease in affinity compared to AVI-607: ~ 3 fold
[2]; [6]
  Ki: 51 µM
[2]; [7]
  Ligand efficiency (binding enery per heavy atom): 0.35
[2]; read-out: HTRF IC50
  IC50: 55 µM

## O=C(O)C(F)(F)F.OC[C@H](Cc1ccc(O)cc1)Nc1ncnc2[nH]ccc12 [AVI-4066]
[1]; crystal soak 10 mM, TFA/DMSO background map
  Hit (PanDDA run, TFA/DMSO background map): TRUE
[1]; crystal soak 10 mM, TFA/DMSO background map, event 1
  1-BDC (PanDDA run, TFA/DMSO background map): 0.19 and 0.29 and 0.3
[1]; [15]
  Number of isomers bound: 1
[2]; [12]
  Ligand efficiency (binding enery per heavy atom): 0.21
[2]; [18]
  IC50: 720 µM
[2]; [13]
  Ki: 670 µM

## CC(C)(O)C1N(c2ncnc3[nH]ccc23)CCC1(C)C (stereo not shown) [AVI-4126]
[1]; [15]
  Number of isomers bound: 2
[1]; [16]
  Isomers modeled: R,S
[2]; [5]
  IC50: 100 µM
[2]; [6]
  Ki: 93 µM
[2]; [7]
  Ligand efficiency (binding enery per heavy atom): 0.28

## CC(C)(O)C1C2CCCCC2CN1c1ncnc2[nH]ccc12 (stereo not shown) [AVI-4127]
[1]; [15]
  Number of isomers bound: 2
[1]; [16]
  Isomers modeled: SSR,SRS
[2]; [5]
  IC50: 130 µM
[2]; [6]
  Ki: 120 µM
[2]; [7]
  Ligand efficiency (binding enery per heavy atom): 0.25

## CC(C)(O)C1C2CCC2CN1c1ncnc2[nH]ccc12 (stereo not shown) [AVI-4128]
[1]; [15]
  Number of isomers bound: 1
[1]; [16]
  Isomers modeled: SRR
[2]; [6]
  Ki: 22 µM
[2]; [7]
  Ligand efficiency (binding enery per heavy atom): 0.32
[2]; read-out: HTRF IC50
  IC50: 24 µM

## Cc1c[nH]c2ncnc(NCC3(O)CCOCC3)c12 [AVI-4194, 4-(((5-methyl-7H-pyrrolo[2,3-d]pyrimidin-4-yl)amino)methyl)tetrahydro-2H-pyran-4-ol]
[1]; [15]
  Number of isomers bound: 1
[1]; [16]
  Isomers modeled: achiral
[2]; [5]
  IC50: 160 µM
[2]; [6]
  Ki: 150 µM
[2]; [7]
  Ligand efficiency (binding enery per heavy atom): 0.28

## Cc1c[nH]c2ncnc(NCC3(O)CCSCC3)c12 [AVI-4195, 4-(((5-methyl-7H-pyrrolo[2,3-d]pyrimidin-4-yl)amino)methyl)tetrahydro-2H-thiopyran-4-ol]
[1]; [15]
  Number of isomers bound: 1
[1]; [16]
  Isomers modeled: achiral
[2]; [5]
  IC50: 52 µM
[2]; [6]
  Ki: 48 µM
[2]; [7]
  Ligand efficiency (binding enery per heavy atom): 0.31

## CC1CCCC(O)(CNc2ncnc3[nH]ccc23)C1 (stereo not shown) [AVI-4307]
[1]; [15]
  Number of isomers bound: 1
[2]; [5]
  IC50: 40 µM
[2]; [6]
  Ki: 37 µM
[2]; [7]
  Ligand efficiency (binding enery per heavy atom): 0.32

## OC1(CNc2ncnc3[nH]ccc23)CCC(F)(F)CC1 [AVI-4308]
[1]; [15]
  Number of isomers bound: 1
[1]; [16]
  Isomers modeled: achiral
[2]; [5]
  IC50: 140 µM
[2]; [6]
  Ki: 130 µM
[2]; [7]
  Ligand efficiency (binding enery per heavy atom): 0.27

## OC1(CNc2ncnc3[nH]ccc23)CCCC(C(F)(F)F)C1 (stereo not shown) [AVI-4309]
[1]; [15]
  Number of isomers bound: 1
[2]; [5]
  IC50: 150 µM
[2]; [6]
  Ki: 140 µM
[2]; [7]
  Ligand efficiency (binding enery per heavy atom): 0.24
